From US6417159B1 (Queen's University at Kingston, priority 1996, dated 2002)
Entries after “also recorded” stand apart in the source; their conditions may differ.

Legend:
ED8 chick DRG neurons = test: NGF-mediated neurite growth by ED8 chick DRG sensory neurons; type: cell-based
[1] = Precipitation out of aqueous solution; type: physicochemical
TrkA [2] = molecular target: T1, TrkA (Rattus norvegicus, UniProt P35739); test: [125I]NGF affinity cross-linking to TrkA; type: binding; conditions: PC12 cells, 50 μM R3
T1 construct: endogenous in cells; host or cells: PC12
T1 sequence (P35739 33-799): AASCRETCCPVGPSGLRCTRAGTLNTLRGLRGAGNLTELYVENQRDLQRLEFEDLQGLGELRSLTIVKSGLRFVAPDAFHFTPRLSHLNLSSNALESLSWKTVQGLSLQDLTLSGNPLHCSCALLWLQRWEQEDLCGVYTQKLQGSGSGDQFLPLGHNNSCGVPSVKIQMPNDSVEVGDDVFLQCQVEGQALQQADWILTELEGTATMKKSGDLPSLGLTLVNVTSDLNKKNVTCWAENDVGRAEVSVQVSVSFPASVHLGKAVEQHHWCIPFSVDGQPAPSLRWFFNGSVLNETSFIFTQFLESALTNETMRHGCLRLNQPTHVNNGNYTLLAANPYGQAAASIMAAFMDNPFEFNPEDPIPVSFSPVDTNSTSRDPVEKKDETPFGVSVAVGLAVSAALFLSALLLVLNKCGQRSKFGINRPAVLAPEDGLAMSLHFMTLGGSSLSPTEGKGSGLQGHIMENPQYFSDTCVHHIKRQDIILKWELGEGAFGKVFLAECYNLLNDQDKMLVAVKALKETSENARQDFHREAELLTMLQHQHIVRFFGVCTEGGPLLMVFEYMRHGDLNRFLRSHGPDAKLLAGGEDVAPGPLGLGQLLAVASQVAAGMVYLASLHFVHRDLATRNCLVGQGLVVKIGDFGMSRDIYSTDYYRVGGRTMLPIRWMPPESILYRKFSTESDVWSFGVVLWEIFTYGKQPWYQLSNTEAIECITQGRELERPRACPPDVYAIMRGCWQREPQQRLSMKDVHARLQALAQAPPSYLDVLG
Method: FIG. 7A illustrates the influence of peptide R3 on affinity cross-linking of TrkA and p75^NTR. Intact PC12 cells were treated with 50 μM R3 for 24 h (preinc.) in medium, harvested with CMF medium, and suspended at a concentration of 10^6·ml^−1 (or 10^7·m^−1 for immunoprecipitation studies) in HKR buffer. Cells were then incubated in the presence or absence of R3 (coinc.) for 15 min at 37° C. and cooled in ice. Cross-linking was performed by incubating cells with 1 nM [^125I]-NGF for 2 h at 4° C., adding EDC ([…]) and NHS (2 mM) or BS^3 (0.4 mM) as indicated, and incubating for 30 min at 25° C. Cells were washed three times in HKR buffer and the pellet dissolved in reducing SDS sample buffer or in lysis buffer (1% NP-40, 10% glycerol, 1 mM PMSF, 10 μg-ml^−1 aprotinin, 1 μg/ml leupeptin, […] o-vanadate in TBS) for immunoprecipitation (lanes 4 and 8). For immunoprecipitation, the cellular debris was removed by centrifugation and the supernatant incubated with 1 μg anti-p75^NTR monoclonal Ab 192 (Cedarlane Laboratories Ltd.) or 1 μg anti-TrkA polyclonal Ab (a gift from Dr. W. Mobley, University of California, San Francisco) for 4 h at 4° C. Immunoprecipates were isolated by incubating with 50 μl of a 50% solution of protein A-SEPHAROSE™ (anti-Trk) or goat anti-mouse agarose (Ab 192) for 2 h at 4° C. Precipitates were washed 3 times in lysis buffer and dissolved in sample buffer. […]

TrkA [3] = test: NGF-mediated TrkA tyrosine phosphorylation in PC12 cells; type: cell-based, rat; conditions: prior to or at the time of NGF exposure
Method: FIG. 7B illustrates the influence of peptide R3 on TrkA phosphorylation. PC12 cells were treated with R3 for 30 min or 24 h and suspended in HKR buffer at a concentration of 10^7·ml^−1. NGF (50 ng·ml^−1) was added where indicated and samples incubated for 15 min at 37° C. Cells were subsequently harvested by centrifugation and the pellets dissolved in lysis buffer and immunoprecipitated for TrkA as described. Immunoprecipitated proteins were separated using 7.5% polyacrylamide gels (Laemmli) and transblotted to PVDF membrane. The membrane was processed for anti-phosphotyrosine with HRP-conjugated antibody RC-20 as described by the manufacture's literature (Transduction Laboratories Ltd.).
TrkA phosphorylation was performed by a modification of the method of Kaplan et al. (1991 a and b). PC12 cells were harvested as described and suspended at a concentration of 10^7 ml in HKR buffer. NGF (100 ng·ml^−1) was added and the cell suspension was incubated for 30 min at 37° C. and pelleted at 4° C. The cells were solublized with lysis buffer, and TrkA protein was immunoprecipitated as described. Proteins were fractionated by 7.5% SDS-PAGE, and transferred to nitrocellulose for immunoblot analysis as described (Harlow and Lane, 1988). Phosphoproteins were visualized using anti-phosphotyrosine clone 4G10 (UBI) as described in the supplier's product literature.

PC12 cells = test: Basic fibroblast growth factor-mediated neurite growth by PC12 cells; type: cell-based, rat

LDALLAALRRIQR [R3]
% of Control Response DRG (ED8 chick DRG neurons; (peptide with NGF − NGF alone)/(R3 with NGF − NGF alone) ×100, scored at 43, 44 and 48 hours, M ± SEM, n = 3 assays): 100 ± 16%
Effect on NGF-mediated neurite growth, co-incubation, in words (ED8 chick DRG neurons; ED8 chick DRG neurons, 10 μM R3): enhancing effect; also recorded: markedly increased the response to NGF between 4 and 8 hours
Concentration at which the peptide tended to precipitate out of aqueous solution with time [1]: ≥ 50 µM
Affinity cross-linking of [125I]NGF to TrkA monomers or homodimers, in words (TrkA [2]): not affected
Influence on NGF-mediated tyrosine phosphorylation of TrkA, in words (TrkA [3]): did not consistently influence
Influence on basic fibroblast growth factor-mediated neurite growth, in words (PC12 cells): no influence
